Legend:
[1] = DRUGMATRIX: GABAA, Chloride Channel, TBOB radioligand binding (ligand: [3H] TBOB); type: cell membranes, Rattus norvegicus, Wistar, Cerebral cortex, Membrane; conditions: Not Active = under 50% inhibition at 10 µM
[2] = DRUGMATRIX: Phosphodiesterase PDE3 enzyme inhibition (substrate: [3H]cAMP + cAMP); type: tissue-based, Homo sapiens; conditions: platelet; Not Active = under 50% inhibition at 10 µM
[3] = DRUGMATRIX: Phosphodiesterase PDE4 enzyme inhibition (substrate: [3H]cAMP + cAMP); conditions: u-937; Not Active = under 50% inhibition at 10 µM
[4] = biological target: Protein kinase C alpha type (Homo sapiens, UniProt P17252); type: cell-based; conditions: sf9;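 also: inhibition of PKCalpha kinase activity measured in an enzyme assay with histone as the phosphorylation substrate; in other assays of this panel Not Active means under 50% inhibition at 10 µM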
[5] = biological target: Tyrosine-protein kinase Fyn (Homo sapiens, UniProt P06241); experiment: biochemical; type: cell-based, Insect cells; conditions: insect cells;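 also: enzymatic inhibition of Fyn kinase activity measured with Poly(Glu:Tyr) as the phosphorylation substrate; in other assays of this panel Not Active means under 50% inhibition at 10 µM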
[6] = biological target: Tyrosine-protein kinase Lck (Homo sapiens, UniProt P06239); experiment: DRUGMATRIX: Protein Tyrosine Kinase, LCK enzyme inhibition (substrate: Poly(Glu:Tyr)); type: cell-based, Insect cells; conditions: insect cells; Not Active = under 50% inhibition at 10 µM
[7] = DRUGMATRIX: Purinergic P2X radioligand binding (ligand: [3H] alpha, beta-Methylene-ATP); type: cell membranes, Oryctolagus cuniculus, New Zealand albino, Urinary bladder, Membrane; conditions: Not Active = under 50% inhibition at 10 µM
[8] = biological target: Cytochrome P450 2E1 (Homo sapiens, UniProt P05181); conditions: bti-tn-5b1-4; also: in other assays of this panel Not Active means under 50% inhibition at 10 µM
Chain of Cytochrome P450 2E1 (P05181 whole entry): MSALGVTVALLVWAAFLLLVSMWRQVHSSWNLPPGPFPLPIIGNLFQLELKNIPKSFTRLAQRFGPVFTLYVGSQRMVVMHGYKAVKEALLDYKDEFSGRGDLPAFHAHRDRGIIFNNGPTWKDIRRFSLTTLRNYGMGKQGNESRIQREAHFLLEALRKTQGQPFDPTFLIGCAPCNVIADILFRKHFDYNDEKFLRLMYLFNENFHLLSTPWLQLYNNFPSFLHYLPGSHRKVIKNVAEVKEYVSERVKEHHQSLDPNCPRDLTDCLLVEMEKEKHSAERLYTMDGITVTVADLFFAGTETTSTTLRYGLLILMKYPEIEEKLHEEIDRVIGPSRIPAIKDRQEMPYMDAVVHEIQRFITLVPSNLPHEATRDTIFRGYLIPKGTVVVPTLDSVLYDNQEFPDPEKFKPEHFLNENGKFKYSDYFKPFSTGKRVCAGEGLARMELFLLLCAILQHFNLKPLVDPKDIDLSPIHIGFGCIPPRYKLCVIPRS

Chain of Tyrosine-protein kinase Fyn (P06241 whole entry): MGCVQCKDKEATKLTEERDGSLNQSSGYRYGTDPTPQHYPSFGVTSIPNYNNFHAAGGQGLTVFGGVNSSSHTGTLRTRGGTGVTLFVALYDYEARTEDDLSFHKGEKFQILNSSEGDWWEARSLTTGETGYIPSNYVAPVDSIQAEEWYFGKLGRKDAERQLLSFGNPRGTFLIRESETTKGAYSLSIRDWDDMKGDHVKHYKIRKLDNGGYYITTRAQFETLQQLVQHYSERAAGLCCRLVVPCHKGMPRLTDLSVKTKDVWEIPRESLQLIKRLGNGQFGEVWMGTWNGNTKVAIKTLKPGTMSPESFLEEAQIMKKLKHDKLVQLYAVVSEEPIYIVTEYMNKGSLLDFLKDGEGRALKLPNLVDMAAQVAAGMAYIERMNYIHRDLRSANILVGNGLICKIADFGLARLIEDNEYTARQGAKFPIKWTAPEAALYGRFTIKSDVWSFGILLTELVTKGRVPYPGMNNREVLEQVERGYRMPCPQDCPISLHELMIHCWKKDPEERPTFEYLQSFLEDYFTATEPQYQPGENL
Chain of Tyrosine-protein kinase Lck (P06239 whole entry): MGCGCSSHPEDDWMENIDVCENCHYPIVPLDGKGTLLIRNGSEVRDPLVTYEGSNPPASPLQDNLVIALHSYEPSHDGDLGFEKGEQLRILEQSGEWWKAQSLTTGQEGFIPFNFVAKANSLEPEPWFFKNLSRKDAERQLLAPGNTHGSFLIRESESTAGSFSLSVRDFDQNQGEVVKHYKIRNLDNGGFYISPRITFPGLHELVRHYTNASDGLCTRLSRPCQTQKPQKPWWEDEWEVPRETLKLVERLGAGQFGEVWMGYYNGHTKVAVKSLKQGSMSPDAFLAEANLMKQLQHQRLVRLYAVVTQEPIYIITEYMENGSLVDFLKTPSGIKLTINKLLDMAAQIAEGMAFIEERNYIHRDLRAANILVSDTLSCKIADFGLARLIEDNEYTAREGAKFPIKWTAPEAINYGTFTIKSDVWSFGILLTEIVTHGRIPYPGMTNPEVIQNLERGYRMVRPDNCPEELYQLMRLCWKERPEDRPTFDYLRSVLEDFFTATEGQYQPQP

CC1(C)O[C@@H]2C[C@H]3[C@@H]4CCC5=CC(=O)C=C[C@]5(C)[C@@]4(F)[C@@H](O)C[C@]3(C)[C@]2(C(=O)CO)O1 [TRIAMCINOLONE ACETONIDE]
Not Active: IC50 [1] | Ki [1] | IC50 [2] | Ki [2] | IC50 [3] | Ki [3] | IC50 [4] | IC50 [5] | IC50 [6] | IC50 [7] | Ki [7] | IC50 [8] | Ki [8]

NS(=O)(=O)c1cc2c(cc1Cl)NC(C(Cl)Cl)NS2(=O)=O (centres undefined) [TRICHLORMETHIAZIDE]
Not Active: IC50 [1] | Ki [1] | IC50 [2] | Ki [2] | IC50 [3] | Ki [3] | IC50 [4] | IC50 [5] | IC50 [6] | IC50 [7] | Ki [7] | IC50 [8] | Ki [8]

Cc1c(C)c2c(c(C)c1O)CCC(C)(COc1ccc(CC3SC(=O)NC3=O)cc1)O2 (centres undefined) [TROGLITAZONE]
Not Active: IC50 [1] | Ki [1] | IC50 [2] | Ki [2] | IC50 [3] | Ki [3] | IC50 [4] | IC50 [5] | IC50 [6] | IC50 [7] | Ki [7] | IC50 [8] | Ki [8]

N#CC(C#N)=Cc1ccc(O)c(O)c1 [TYRPHOSTIN 23]
Not Active: IC50 [1] | Ki [1] | IC50 [2] | Ki [2] | IC50 [3] | Ki [3] | IC50 [4] | IC50 [5] | IC50 [6] | IC50 [7] | Ki [7] | IC50 [8] | Ki [8]

CC[C@]1(O)C[C@H]2CN(CCc3c([nH]c4ccccc34)[C@@](C(=O)OC)(c3cc4c(cc3OC)N(C=O)[C@H]3[C@@](O)(C(=O)OC)[C@H](OC(C)=O)[C@]5(CC)C=CCN6CC[C@]43[C@@H]65)C2)C1 [VINCRISTINE]
Not Active: IC50 [1] | Ki [1] | IC50 [2] | Ki [2] | IC50 [3] | Ki [3] | IC50 [4] | IC50 [5] | IC50 [6] | IC50 [7] | Ki [7] | IC50 [8] | Ki [8]

CCCOc1ccccc1-c1nc2nn[nH]c2c(=O)[nH]1 [ZAPRINAST]
Not Active: IC50 [1] | Ki [1] | IC50 [2] | Ki [2] | IC50 [3] | Ki [3] | IC50 [4] | IC50 [5] | IC50 [6] | IC50 [7] | Ki [7] | IC50 [8] | Ki [8]

SODIUM NITROPRUSSIDE
Not Active: IC50 [1] | Ki [1] | IC50 [2] | Ki [2] | IC50 [3] | Ki [3] | IC50 [4] | Ki [4] | IC50 [5] | Ki [5] | IC50 [6] | Ki [6] | IC50 [7] | Ki [7] | IC50 [8] | Ki [8]

From ChEMBL document CHEMBL1909046, “DrugMatrix in vitro pharmacology data”
